1 compound from article PMC1458514 (Nucleic Acids Research, 2006) can be followed below.

For one test, the target named is T1, Oligoribonuclease (Orn) (Escherichia coli, UniProt P0A784).
T1 sequence (P0A784 2-181): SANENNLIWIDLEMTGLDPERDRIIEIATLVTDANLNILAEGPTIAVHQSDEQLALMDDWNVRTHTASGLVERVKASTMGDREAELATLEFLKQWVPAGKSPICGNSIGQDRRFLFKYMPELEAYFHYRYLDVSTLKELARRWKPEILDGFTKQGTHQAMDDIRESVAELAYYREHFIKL
Kind of test: Cy5-RNA 5mer degradation assay. Type of test: biochemical.

Test [1] concerns the target nucleoside diphosphate kinase (NDK A) (Homo sapiens, UniProt P15531). Kind of test: pAp-agarose affinity chromatography of HeLa extract, LC-MS/MS. Type of test: cell-based.
Test [2] deals with T2, small fragment nuclease (Sfn) (Homo sapiens, UniProt Q9Y3B8).
T2 sequence (Q9Y3B8 26-237): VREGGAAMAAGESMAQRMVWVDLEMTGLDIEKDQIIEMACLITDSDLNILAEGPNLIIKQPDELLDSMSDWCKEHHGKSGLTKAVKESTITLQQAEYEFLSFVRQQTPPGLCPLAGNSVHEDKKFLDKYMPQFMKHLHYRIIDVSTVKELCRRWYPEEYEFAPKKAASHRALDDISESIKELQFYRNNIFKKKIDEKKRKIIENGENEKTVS
Put plainly: Cy5-RNA 5mer degradation assay. In kind it is biochemical.

Chain of nucleoside diphosphate kinase (NDK A) (P15531 2-152): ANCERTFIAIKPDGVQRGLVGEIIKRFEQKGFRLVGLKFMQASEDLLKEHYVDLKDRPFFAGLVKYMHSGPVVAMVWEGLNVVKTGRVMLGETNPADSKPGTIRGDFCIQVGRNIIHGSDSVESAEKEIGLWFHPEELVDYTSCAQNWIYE

Turning to `Nc1ncnc2c1ncn2[C@@H]1O[C@H](COP(=O)(O)O)[C@@H](OP(=O)(O)O)[C@H]1O` [pAp], the “Cy5-RNA 5mer degradation assay (gel) with purified Orn; also pAp-agarose affinit” value at Oligoribonuclease (Orn) is ~ 20 µM. For the same compound, in test [1], the “pAp-agarose affinity chromatography of HeLa extract, LC-MS/MS” value was “The second human enzyme we found to bind to pAp is NDK”. Also, in test [2], the “Cy5-RNA 5mer degradation assay (gel) with purified Sfn; also pAp-agarose capture” value is ~ 20 µM.
